From patent US20080076729A1, “Interferon-beta gene therapy using an improved, regulated expression system” (Schering Aktiengesellachaft, priority 2005, published 2008)
Where two headings read alike, the source gives them in different places.

Key:
[1] = test system: luciferase reporter gene; experiment: Luciferase reporter gene assay for activity of purified mIFN-β protein; format: cell-based
Experimental: Specifically, the gene encoding mIFN-β was cloned into a pCEP4 expression vector (Invitrogen). The expression plasmid encoding mIFN-β was transiently transfected into 293E cells (Edge Biosystems) using X-tremeGene Ro-1539 Transfection Reagent (Roche). Murine IFN-β protein was purified from the medium by ion-exchange chromatography and by hydrophobic-interaction chromatography. The product was sialyzed and concentrated against dilution buffer (50 mM sodium acetate, pH 5.5, 150 mM sodium chloride, and 5% polypropylene glycol) and sterile filtered. Aliquots of the purified protein were stored at −80° C. The activity of the purified protein was assessed using a luciferase reporter gene assay (Hardy et al. (2001) Blood 97:473-482), using a commercial mIFN-β reference standard from Access Biomedical (San Diego, Calif.). The specific activity of the purified protein was 2×10^8 units/mg.
The positive control used for this study was Prednisolone, 2.5 mg/kg, (Sigma, St. Louis) administered by IP injection twice daily, beginning on day 1, until the end of the study. For mIFN-β protein delivery, the mice were given SC injections of purified recombinant mIFN-β protein every other day, starting on day 1 of the study (100,000 or 300,000 IU per animal per injection in 100 ul vehicle buffer). […]

[2] = test system: IP-10; experiment: IP-10 chemokine level in plasma/serum of treated mice by ELISA; format: in vivo
Experimental: FIG. 7 illustrates induction levels of IP-10 (A) and JE (B) following i.v. or i.m. injection of murine IFN-β protein. C57BL/6 mice were administered 15, 150, or 500 ng of purified recombinant mIFN-β protein (specific activity=2.0×10^8 units/mg) by either i.v. (via tail vein) or i.m. injection (n=3 mice per group). The mice were bled at 2, 4, 6, 12, 24, and 48 hours post-injection, and the plasma levels of IP-10 and JE were measured by ELISA (R&D Systems).
FIG. 8 illustrates the induction of IP-10 following intramuscular injection of AAV-1-mIFN-β DNA or mIFN-β plasmid DNA with electroporation (EP) in mice. […] Mice were bled at the indicated time points and IP-10 levels in plasma were determined by ELISA. […]
• A. Development of mIFN-β Biomarkers: For higher sensitivity in detection of murine IFN-β (mIFN-β) activity in vivo, biomarkers for mIFN-β activity were identified in mice after injection of mIFN-β protein or mIFN-β encoded gene therapy vectors. […] In the present study, the expression of the MxA mouse homologue, Mx1, (see e.g., Hug, H et al. Mol Cell Biol 8: 3065-79; Pavlovic, J (1993) Ciba Found Symp 176: 233-43) isolated from murine peripheral blood monocytes (PBMC's) was used to detect the presence of biologically active mIFN-β. • A quantitative PCR/RT-PCR assay was developed to quantitate the levels of Mx1 mRNA in murine PBMC's. […]

[3] = test system: Mx1 RNA; experiment: Mx1 RNA induction in PBMCs of treated mice (quantitative RT-PCR, normalized to GAPDH); format: in vivo
Experimental: FIG. 6 illustrates Mx1 RNA induction following i.v. (A) or i.m. injection (B) of mIFN-β protein. C57BL/6 mice were administered 15, 150, or 500 ng of purified recombinant mIFN-β protein (specific activity-2.0×10^8 units/mg) by either i.v. (via tail vein) or i.m. injection (n=3 mice per group). At the specified time points post-injection mice were bled, and RNA was isolated from PBMCs. Mx1 RNA was measured by quantitative RT-PCR. The fold increase in Mx1 RNA is expressed relative to GAPDH values measured in the same samples. The controls include naive mice (N), and mice injected with the vehicle buffer only followed by Mx1 analysis at 2 hours (V2 h) or 4 h (V4 h) post-injection. Each column represents the mean value +/− standard deviation.

[4] = test system: SJL mice with acute EAE; experiment: Mouse acute EAE model, daily clinical scoring; format: in vivo

Substance: mIFN-β: purified recombinant murine interferon-beta protein
- specific activity of the purified protein [1]: 2×10^8 international units (IU) per mg
- specific activity of the purified protein ([1]; commercial mIFN-β reference standard): 2×10^8 units/mg
- time by which plasma IP-10 dropped to background ([2]; bolus protein, each of three doses): ≤ 24 h
- IP-10 levels increase ([2]; high dose (500 ng) delivered i.v., 2 hours): 3000 fold
- time after injection beyond which no Mx1 RNA levels above background were detected ([3]; bolus protein): 12 h
- Induction of Mx1 RNA expression relative to vehicle injected mice ([3]; bolus protein 15, 150 or 500 ng, i.v. or i.m.): 25- to 50 fold
- Tmax of induction of all three biomarkers (Mx1, IP-10, JE) ([3]; bolus protein i.v. or i.m.): approximately 2 hours
- time after injection of highest Mx1 expression levels ([3]; bolus protein i.v. or i.m.): 2 h
- time post-injection within which biomarker levels dropped to background ([3]; bolus protein i.v. or i.m.): 12 to 24 h
- dose giving highest Mx1 induction ([3]; i.v. injection, diminished at 500 ng): 150 ng
- clinical scores of EAE compared to vehicle treated mice ([4]; 30,000 units s.c. every other day, first study): did not reach statistical significance
- clinical scores of EAE compared to vehicle control ([4]; 100,000 Units s.c. every other day, second study (FIG. 12)): significantly decreased clinical scores
- severity of the disease (clinical scores) compared to vehicle treated animals ([4]; 100,000 or 300,000 units SC every other day, 25 day study (FIG. 39A)): significantly reduced the severity of the disease
- clinical scores of EAE compared with vehicle treated mice ([4]; 100,000 units s.c. every other day, first study (FIG. 11)): significantly decreased clinical scores
